According to article PMC4650693, “Characterization of two-step deglycosylation via oxidation by glycoside oxidoreductase and defining their subfamily” (Scientific Reports, 2015):

Target: T1, FAD-GO from Rhizobium sp. GIN611 (Rhizobium sp. GIN611, UniProt G9ILI7)
T1 construct: recombinant, expressed in E. coli Rosetta-gami 2 (DE3, pLysS)
T1 sequence (G9ILI7 1-561): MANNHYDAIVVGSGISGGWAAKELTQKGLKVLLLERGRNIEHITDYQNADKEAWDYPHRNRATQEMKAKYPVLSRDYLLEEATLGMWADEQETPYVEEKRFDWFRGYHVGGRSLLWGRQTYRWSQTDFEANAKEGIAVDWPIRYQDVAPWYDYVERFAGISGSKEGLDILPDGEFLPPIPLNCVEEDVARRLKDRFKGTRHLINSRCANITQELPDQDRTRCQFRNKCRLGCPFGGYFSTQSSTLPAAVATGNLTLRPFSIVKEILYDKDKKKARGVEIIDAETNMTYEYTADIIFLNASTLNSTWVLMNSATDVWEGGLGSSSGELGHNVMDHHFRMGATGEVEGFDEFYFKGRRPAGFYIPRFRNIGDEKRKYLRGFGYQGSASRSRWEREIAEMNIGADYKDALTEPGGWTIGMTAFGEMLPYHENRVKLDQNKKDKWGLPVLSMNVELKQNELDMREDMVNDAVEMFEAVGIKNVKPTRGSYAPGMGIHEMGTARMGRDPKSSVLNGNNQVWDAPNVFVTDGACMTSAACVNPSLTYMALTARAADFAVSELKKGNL
Test: HPLC of oxidation and deglycosylation products
Format: biochemical
Conditions: C3-OH of glucose oxidised; FAD enzyme, O2
Source text: HPLC of oxidation and deglycosylation products on FAD-GO from Rhizobium sp.

For `CC(C)=CCC[C@](C)(O[C@@H]1O[C@H](CO)[C@@H](O)[C@H](O)[C@H]1O)[C@H]1CC[C@]2(C)[C@@H]1[C@H](O)C[C@@H]1[C@@]3(C)CC[C@H](O)C(C)(C)[C@@H]3CC[C@]12C` [CK, Compound K], the “HPLC of oxidation and deglycosylation products” value was “HPLC chromatogram of enzyme reactions using wild type, H493F mutant or H493A mutant enzyme”.
